The record followed here is patent publication US10336732B2, “1-heterocyclyl isochromanyl compounds and analogs for treating CNS disorders” (Sunovion Pharmaceuticals Inc., priority 2015, dated 2019).

The structures appear in SMILES notation.

The test system of the test is mice. Put plainly: Neuropharmacological assay (SmartCube), behavioral signature of compound-treated mice. It counts as in vivo. The following applies: i.p. 15 min before behavioral test, most efficacious dose(s) of 3 doses. An outline of the steps: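 Mice received compound i.p. in NMP/PEG/propylene glycol vehicle at 3 doses, 15 min before testing. Video-captured behavior was algorithmically compared with a reference-drug signature database.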

As to `Clc1ccc2c(c1)CCO[C@@H]2[C@H]1CCCN1` [Compound I-36, (R)-2-((S)-6-chloroisochroman-1-yl)pyrrolidine], the “AD: ADHD (probability that behavioral signature matches class)” value (“AD: ADHD” for short) is “+ (LOQ ≤ + <5%)”, the “AG: analgesic (probability that behavioral signature matches class)” value (shortened to “AG: analgesic”) is “++ (5% ≤ ++ <25%)”, the “AX: anxiolytic (probability that behavioral signature matches class)” value (“AX: anxiolytic” for short) is given as “++ (5% ≤ ++ <25%)” and the “CE: cognitive enhancer (probability that behavioral signature matches class)” value (“CE: cognitive enhancer” for short) was “++ (5% ≤ ++ <25%)”. In addition, the “DP: anti-depressant (probability that behavioral signature matches class)” value (“DP: anti-depressant” for short) was “++ (5% ≤ ++ <25%)”, the “HA: hallucinogen (probability that behavioral signature matches class)” value (from here on “HA: hallucinogen”) is listed as “+ (LOQ ≤ + <5%)”, the “MS: mood stabilizer (probability that behavioral signature matches class)” value (shortened to “MS: mood stabilizer”) is “++ (5% ≤ ++ <25%)” and the “PS: anti-psychotic (probability that behavioral signature matches class)” value (shortened to “PS: anti-psychotic”) was “+++ (25% ≤ +++ <50%)”. The “SD: sedative hypnotic (probability that behavioral signature matches class)” value (from here on “SD: sedative hypnotic”) is reported as “+ (LOQ ≤ + <5%)”, the “UN: uncharacterized CNS activity (probability that behavioral signature matches class)” value (“UN: uncharacterized CNS activity” below) is on record as “++ (5% ≤ ++ <25%)” and the “XG: anxiogenic (probability that behavioral signature matches class)” value (from here on “XG: anxiogenic”) is reported as “+ (LOQ ≤ + <5%)”.

Take `N#Cc1cccc2c1[C@@H]([C@@H]1CCCN1)OCC2` [Compound I-37, (S)-1-((S)-pyrrolidin-2-yl)isochroman-8-carbonitrile]: the “AD: ADHD” value is “+ (LOQ ≤ + <5%)”, the “AG: analgesic” value is reported as “+ (LOQ ≤ + <5%)”, the “AX: anxiolytic” value was “++ (5% ≤ ++ <25%)” and the “CE: cognitive enhancer” value is “+ (LOQ ≤ + <5%)”. In addition, the “DP: anti-depressant” value was “++ (5% ≤ ++ <25%)”, the “HA: hallucinogen” value is on record as “+ (LOQ ≤ + <5%)”, the “MS: mood stabilizer” value is “+ (LOQ ≤ + <5%)” and the “PS: anti-psychotic” value is “++ (5% ≤ ++ <25%)”. For the same compound, the “SD: sedative hypnotic” value is recorded as “+ (LOQ ≤ + <5%)”, the “UN: uncharacterized CNS activity” value is reported as “+++ (25% ≤ +++ <50%)” and the “XG: anxiogenic” value is recorded as “+ (LOQ ≤ + <5%)”.

In the case of `N#Cc1cccc2c1[C@H]([C@@H]1CCCN1)OCC2` [Compound I-38, (R)-1-((S)-pyrrolidin-2-yl)isochroman-8-carbonitrile], the “AD: ADHD” value is “+ (LOQ ≤ + <5%)”, the “AG: analgesic” value is “++ (5% ≤ ++ <25%)”, the “AX: anxiolytic” value is given as “++ (5% ≤ ++ <25%)” and the “CE: cognitive enhancer” value was “+ (LOQ ≤ + <5%)”. Moreover, the “DP: anti-depressant” value is reported as “++ (5% ≤ ++ <25%)”, the “HA: hallucinogen” value was “+ (LOQ ≤ + <5%)”, the “MS: mood stabilizer” value was “+ (LOQ ≤ + <5%)” and the “PS: anti-psychotic” value is reported as “+ (LOQ ≤ + <5%)”. Moreover, the “SD: sedative hypnotic” value was “+ (LOQ ≤ + <5%)”, the “UN: uncharacterized CNS activity” value was “+ (LOQ ≤ + <5%)” and the “XG: anxiogenic” value was “+ (LOQ ≤ + <5%)”.

On to `N#Cc1ccc2c(c1)[C@@H]([C@@H]1CCCN1)OCC2` [Compound I-39, (S)-1-((S)-pyrrolidin-2-yl)isochroman-7-carbonitrile], for which the “AD: ADHD” value is on record as “+ (LOQ ≤ + <5%)”, the “AG: analgesic” value is on record as “++ (5% ≤ ++ <25%)”, the “AX: anxiolytic” value was “++ (5% ≤ ++ <25%)” and the “CE: cognitive enhancer” value is “++ (5% ≤ ++ <25%)”. Moreover, the “DP: anti-depressant” value is reported as “+ (LOQ ≤ + <5%)”, the “HA: hallucinogen” value was “+ (LOQ ≤ + <5%)”, the “MS: mood stabilizer” value was “+ (LOQ ≤ + <5%)” and the “PS: anti-psychotic” value is on record as “+ (LOQ ≤ + <5%)”. The “SD: sedative hypnotic” value was “+ (LOQ ≤ + <5%)”, the “UN: uncharacterized CNS activity” value is “++ (5% ≤ ++ <25%)” and the “XG: anxiogenic” value is on record as “+ (LOQ ≤ + <5%)”.

On to `N#Cc1ccc2c(c1)[C@H]([C@@H]1CCCN1)OCC2` [Compound I-40, (R)-1-((S)-pyrrolidin-2-yl)isochroman-7-carbonitrile], for which the “AD: ADHD” value is listed as “+ (LOQ ≤ + <5%)”, the “AG: analgesic” value was “+ (LOQ ≤ + <5%)”, the “AX: anxiolytic” value was “++ (5% ≤ ++ <25%)” and the “CE: cognitive enhancer” value is given as “++ (5% ≤ ++ <25%)”. In addition, the “DP: anti-depressant” value is “++ (5% ≤ ++ <25%)”, the “HA: hallucinogen” value was “+ (LOQ ≤ + <5%)”, the “MS: mood stabilizer” value is reported as “+ (LOQ ≤ + <5%)” and the “PS: anti-psychotic” value is “+++ (25% ≤ +++ <50%)”. The “SD: sedative hypnotic” value is recorded as “+ (LOQ ≤ + <5%)”, the “UN: uncharacterized CNS activity” value was “+ (LOQ ≤ + <5%)” and the “XG: anxiogenic” value is recorded as “+ (LOQ ≤ + <5%)”.

On to `N#Cc1ccc2c(c1)[C@H]([C@H]1CCCN1)OCC2` [Compound I-41, (R)-1-((R)-pyrrolidin-2-yl)isochroman-7-carbonitrile], for which the “AD: ADHD” value is listed as “+ (LOQ ≤ + <5%)”, the “AG: analgesic” value is given as “++ (5% ≤ ++ <25%)”, the “AX: anxiolytic” value is on record as “++ (5% ≤ ++ <25%)” and the “CE: cognitive enhancer” value is reported as “++ (5% ≤ ++ <25%)”. For the same compound, the “DP: anti-depressant” value is “+++ (25% ≤ +++ <50%)”, the “HA: hallucinogen” value is “+ (LOQ ≤ + <5%)”, the “MS: mood stabilizer” value was “++ (5% ≤ ++ <25%)” and the “PS: anti-psychotic” value is “++ (5% ≤ ++ <25%)”. For the same compound, the “SD: sedative hypnotic” value is “++ (5% ≤ ++ <25%)”, the “UN: uncharacterized CNS activity” value is “+ (LOQ ≤ + <5%)” and the “XG: anxiogenic” value is given as “+ (LOQ ≤ + <5%)”.

In the case of `N#Cc1ccc2c(c1)[C@@H]([C@H]1CCCN1)OCC2` [Compound I-42, (S)-1-((R)-pyrrolidin-2-yl)isochroman-7-carbonitrile], the “AD: ADHD” value is listed as “+ (LOQ ≤ + <5%)”, the “AG: analgesic” value is “++ (5% ≤ ++ <25%)”, the “AX: anxiolytic” value was “++ (5% ≤ ++ <25%)” and the “CE: cognitive enhancer” value is on record as “++ (5% ≤ ++ <25%)”. For the same compound, the “DP: anti-depressant” value was “+++ (25% ≤ +++ <50%)”, the “HA: hallucinogen” value is reported as “+ (LOQ ≤ + <5%)”, the “MS: mood stabilizer” value is listed as “+ (LOQ ≤ + <5%)” and the “PS: anti-psychotic” value is “++ (5% ≤ ++ <25%)”. The “SD: sedative hypnotic” value is listed as “++ (5% ≤ ++ <25%)”, the “UN: uncharacterized CNS activity” value is reported as “+ (LOQ ≤ + <5%)” and the “XG: anxiogenic” value was “+ (LOQ ≤ + <5%)”.

As for `N#Cc1ccc2c(c1)CCO[C@@H]2[C@@H]1CCCN1` [Compound I-43, (S)-1-((S)-pyrrolidin-2-yl)isochroman-6-carbonitrile], the “AD: ADHD” value is on record as “+ (LOQ ≤ + <5%)”, the “AG: analgesic” value is “++ (5% ≤ ++ <25%)”, the “AX: anxiolytic” value is on record as “+++ (25% ≤ +++ <50%)” and the “CE: cognitive enhancer” value is given as “++ (5% ≤ ++ <25%)”. Besides, the “DP: anti-depressant” value is “++ (5% ≤ ++ <25%)”, the “HA: hallucinogen” value was “+ (LOQ ≤ + <5%)”, the “MS: mood stabilizer” value is “+ (LOQ ≤ + <5%)” and the “PS: anti-psychotic” value is reported as “++ (5% ≤ ++ <25%)”. Further, the “SD: sedative hypnotic” value was “+ (LOQ ≤ + <5%)”, the “UN: uncharacterized CNS activity” value is listed as “+ (LOQ ≤ + <5%)” and the “XG: anxiogenic” value is recorded as “+ (LOQ ≤ + <5%)”.

Take `N#Cc1ccc2c(c1)CCO[C@H]2[C@@H]1CCCN1` [Compound I-44, (R)-1-((S)-pyrrolidin-2-yl)isochroman-6-carbonitrile]: the “AD: ADHD” value is “+ (LOQ ≤ + <5%)”, the “AG: analgesic” value was “++ (5% ≤ ++ <25%)”, the “AX: anxiolytic” value is recorded as “+++ (25% ≤ +++ <50%)” and the “CE: cognitive enhancer” value is listed as “++ (5% ≤ ++ <25%)”. Besides, the “DP: anti-depressant” value is on record as “++ (5% ≤ ++ <25%)”, the “HA: hallucinogen” value was “+ (LOQ ≤ + <5%)”, the “MS: mood stabilizer” value was “++ (5% ≤ ++ <25%)” and the “PS: anti-psychotic” value is reported as “+++ (25% ≤ +++ <50%)”. For the same compound, the “SD: sedative hypnotic” value is recorded as “+ (LOQ ≤ + <5%)”, the “UN: uncharacterized CNS activity” value is on record as “+ (LOQ ≤ + <5%)” and the “XG: anxiogenic” value is “+ (LOQ ≤ + <5%)”.
